These molecules were tested on NASH mice (MCDD) (assay: NASH treatment study in mice fed a methionine-choline-deficient diet (MCDD)). Conditions: NASH mice given MCDD, 8 weeks; i.p. 2.5 mg/kg/day three times a week.
Assay type: in vivo, mice (C57BL/6J)
Description: Next, an animal experiment was performed on NASH mice that were produced by feeding a methionine-choline-deficient diet (MCDD).

SMILES | hepatic fibrosis (Azan staining) | fat accumulation in liver tissue (microscopic observation)
O=C(O[C@H](Cc1ccc2ccccc2c1)C(=O)O)C1c2ccccc2-c2ccccc21 [Compound H-31] | significantly inhibited | 
O=C(O)[C@@H](Cc1ccc2ccccc2c1)NC(=O)n1c2ccccc2c2ccccc21 [Compound H-163] | significantly inhibited | reduced

Same assay, conditions: NASH mice given MCDD; i.p. 2.5 mg/kg/day three times a week

SMILES | Collagen 1a1 mRNA expression level | Collagen 1a2 mRNA expression level | SMA mRNA expression level
O=C(O[C@H](Cc1ccc2ccccc2c1)C(=O)O)C1c2ccccc2-c2ccccc21 [Compound H-31] | reduced | reduced | reduced
O=C(O)[C@@H](Cc1ccc2ccccc2c1)NC(=O)n1c2ccccc2c2ccccc21 [Compound H-163] | reduced | reduced | reduced

What follows are molecules tested on NASH model mice (HFDT) (assay: not given). Conditions: HFDT NASH mice, 8 weeks; i.p. 2.5 mg/kg/day or oral 5.0 mg/kg/day three times a week.
Description: Animal experiments were performed using non-alcoholic steatohepatitis (NASH) model mice to test the compounds synthesized in Examples for the therapeutic effect on NASH.
NASH model mice (hereinafter referred to as “NASH mice”) were produced by feeding a high-fat diet containing trans fatty acids (HFDT) to individual male laboratory mice (C57BL/6J) for 8 weeks. […] In addition, a normal diet was given to individual male laboratory mice (C57BL/6J) for 8 weeks to prepare control mice.

fasting blood glucose level | SMILES | blood ALT (GPT) value, index of liver inflammation | increase in liver weight
no significant abnormality | COC(=O)[C@@H](Cc1ccc2ccccc2c1)NC(=O)n1c2ccccc2c2ccccc21 [Compound H-144] | decreased | significantly reduced
no significant abnormality | O=C(O)[C@@H](Cc1ccc2ccccc2c1)NC(=O)n1c2ccccc2c2ccccc21 [Compound H-163] | decreased | significantly reduced

Same assay, conditions: HFDT NASH mice, 8 weeks; oral 5.0 mg/kg/day three times a week

SMILES | fasting blood glucose level | increase in liver weight
O=C1C=CC(=O)c2c(O)cccc21 [Juglone, reference compound] | abnormal increase | significantly reduced

Same assay, conditions: HFDT NASH mice; i.p. 2.5 mg/kg/day three times a week

SMILES | death of mice
O=C1C=CC(=O)c2c(O)cccc21 [Juglone, reference compound] | all dead within 8 weeks

Same assay, conditions: HFDT NASH mice; oral 5.0 mg/kg/day three times a week

SMILES | death of mice
O=C1C=CC(=O)c2c(O)cccc21 [Juglone, reference compound] | not dead

Same assay, conditions: NASH mice given HFDT

SMILES | fat accumulation in liver tissue (microscopic observation)
O=C(O)[C@@H](Cc1ccc2ccccc2c1)NC(=O)n1c2ccccc2c2ccccc21 [Compound H-163] | significantly reduced

The molecules below were run against T1, Pin1 (Homo sapiens, UniProt Q13526) (assay: Cell-based Pin1 inhibition assay with AMPK phosphorylation level as index). Conditions: 293T cells, compound at 100 μM, 10 mM 2-DG, pAMPK blot compared with C1.
T1 construct: endogenous in cells; host or cells: 293T cells
T1 sequence (Q13526 whole entry): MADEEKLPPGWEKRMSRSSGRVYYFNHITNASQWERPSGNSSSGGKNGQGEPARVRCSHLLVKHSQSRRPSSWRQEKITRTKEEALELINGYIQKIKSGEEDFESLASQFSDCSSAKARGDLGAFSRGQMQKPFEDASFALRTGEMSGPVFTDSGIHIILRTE
Set-up: key to Pin1 inhibition activity: +++: a higher level of AMPK phosphorylation is promoted, as compared with C1; ++: a similar level of AMPK phosphorylation is promoted, as compared with C1; +: a lower level of AMPK phosphorylation is promoted, as compared with C1; −: no or almost no promotion is found in AMPK phosphorylation
Description: To evaluate the inhibitory activity of each synthesized compound against the function of Pin1, a cell-based assay was performed according to the method previously developed by the inventors (Yusuke Nakatsu et al., Journal of Biological Chemistry, 2015, Vol. 290, No. 40, pp. 24255-24266), in which the phosphorylation level of AMPK (AMP-activated protein kinase), a protein whose phosphorylation is inhibited by Pin1, was examined as an index.
Briefly, 293T cells were plated on a collagen-coated 24-well plate. Forty-eight hours later, each compound synthesized in the preceding example (at 100 μM) was added to the plate, and the plate was left to stand in an incubator for 30 minutes. Subsequently, 10 mM 2-DG was added to the plate, and one hour later, each sample was collected with a buffer containing mercaptoethanol and SDS.
SDS-PAGE and blotting were performed, and blocking was then performed with 3% BSA for 1 hour, according to conventional protocols. Subsequently, a pAMPK antibody (Cell Signaling; diluted 1:2000 in Can Get Signal Solution 1, Toyobo) as a primary antibody, and an HRP-linked anti rabbit IgG (GE Healthcare; diluted 1:4000 in Can Get Signal Solution 2, Toyobo) as a secondary antibody were allowed to react at ambient temperature for 1 hour prior to detection.
The inhibitory activity against the function of Pin1 was evaluated by comparing the inhibition levels between each compound and a known Pin1 inhibitor, C1, as indicated below: […]

SMILES | Pin1 inhibition activity
O=C(O[C@H](Cc1ccc2ccccc2c1)C(=O)OCc1ccccc1)c1ccc2ccccc2c1 [Compound H-21] | − (Hydrolysis causes conversion to H-30, which is active)
O=C(O[C@H](Cc1ccc2ccccc2c1)C(=O)O)c1ccc2ccccc2c1 [Compound H-30] | ++
O=C(O[C@H](Cc1ccc2ccccc2c1)C(=O)O)C1c2ccccc2-c2ccccc21 [Compound H-31] | +++
COc1ccc(-c2cc(C(=O)O[C@H](Cc3ccc4ccccc4c3)C(=O)O)c(C)o2)cc1 [Compound H-32] | +
O=C(O)[C@@H](Cc1ccc2ccccc2c1)NC(=O)C1(O)c2ccccc2-c2ccccc21 [Compound H-101] | ++
O=C(N[C@H](Cc1ccc2ccccc2c1)C(=O)OCc1ccccc1)C1c2ccccc2-c2ccccc21 [Compound H-105] | − (Hydrolysis causes conversion to H-109, which is active)
O=C(CC1c2ccccc2-c2ccccc21)O[C@H](Cc1ccc2ccccc2c1)C(=O)O [Compound H-106] | ++
O=C(O[C@H](Cc1ccc2ccccc2c1)C(=O)O)c1ccccc1Oc1ccccc1 [Compound H-132] | +
O=C(O[C@H](Cc1ccc2ccccc2c1)C(=O)O)C(c1ccccc1)c1ccccc1 [Compound H-134] | ++
O=C(O[C@@H](Cc1ccc2ccccc2c1)C(=O)O)C1c2ccccc2-c2ccccc21 [Compound H-141] | +++
O=C(Cc1ccc2ccccc2c1)O[C@H](Cc1ccc2ccccc2c1)C(=O)O [Compound H-149] | +
O=C(Cc1cccc2ccccc12)O[C@H](Cc1ccc2ccccc2c1)C(=O)O [Compound H-151] | ++
O=C(O)[C@@H](Cc1ccc2ccccc2c1)OC(=O)N1c2ccccc2Oc2ccccc21 [Compound H-157] | ++
O=C(O)[C@@H](Cc1ccc2ccccc2c1)OC(=O)n1c2ccccc2c2ccccc21 [Compound H-175] | +++
O=C(COc1ccccc1)O[C@H](Cc1ccc2ccccc2c1)C(=O)O [Compound H-176] | ++
O=C(COc1ccc2ccccc2c1)O[C@H](Cc1ccc2ccccc2c1)C(=O)O [Compound H-177] | ++
O=C(COc1cccc2ccccc12)O[C@H](Cc1ccc2ccccc2c1)C(=O)O [Compound H-179] | +++
O=C(Cc1c[nH]c2ccccc12)O[C@H](Cc1ccc2ccccc2c1)C(=O)O [Compound H-180] | ++
COc1cc(OC)cc(C(=O)O[C@H](Cc2ccc3ccccc3c2)C(=O)O)c1 [Compound H-198] | +
O=C(O[C@H](Cc1ccc2ccccc2c1)C(=O)O)c1cc(Cl)cc(Cl)c1 [Compound H-200] | +
Cc1cc(C)cc(C(=O)O[C@H](Cc2ccc3ccccc3c2)C(=O)O)c1 [Compound H-210] | +
CN(C)c1ccc(C(=O)O[C@H](Cc2ccc3ccccc3c2)C(=O)O)cc1 [Compound H-212] | +
CC(C)(C)OC(=O)N[C@@H](Cc1ccccc1)C(=O)O[C@H](Cc1ccc2ccccc2c1)C(=O)O [Compound H-248] | +
Cc1ccc(C(=O)O[C@H](Cc2ccc3ccccc3c2)C(=O)O)cc1C [Compound H-265] | +
COc1ccc(C(=O)O[C@H](Cc2ccc3ccccc3c2)C(=O)O)cc1OC [Compound H-266] | +
O=C(O[C@H](Cc1ccc2ccccc2c1)C(=O)O)c1ccc(Cl)c(Cl)c1 [Compound H-269] | +
O=C(O[C@H](Cc1ccc2ccccc2c1)C(=O)O)c1ccc(F)c(F)c1 [Compound H-270] | +
COC(=O)[C@@H](Cc1ccc2ccccc2c1)NC(=O)CN1c2ccccc2C2C=CC=CC21 (some centres unmarked) [Compound H-521] | +

More lines, now with the values ahead:

Pin1 inhibition activity | SMILES
++ | O=C(O[C@H](Cc1ccc2ccccc2c1)C(=O)O)c1ccc(C(O)c2ccccc2)cc1 (some centres unmarked) [Compound H-23]
+ | O=C(O[C@H](Cc1ccc2ccccc2c1)C(=O)O)c1ccc(-c2ccccc2)cc1 [Compound H-33]
+ | COC(=O)c1ccc2cc(C(=O)N[C@H](Cc3ccc4ccccc4c3)C(=O)O)ccc2c1 [Compound H-62]
+++ | O=C(CC1c2ccccc2-c2ccccc21)N[C@H](Cc1ccc2ccccc2c1)C(=O)O [Compound H-103]
+++ | O=C(N[C@H](Cc1ccc2ccccc2c1)C(=O)O)C1c2ccccc2-c2ccccc21 [Compound H-109]
++ | O=C(O[C@H](Cc1ccc2ccccc2c1)C(=O)O)c1ccc(Oc2ccccc2)cc1 [Compound H-123]
++ | O=C(O[C@H](Cc1ccc2ccccc2c1)C(=O)O)c1cccc(Oc2ccccc2)c1 [Compound H-130]
++ | O=C(Cc1ccc2ccccc2c1)N[C@H](Cc1ccc2ccccc2c1)C(=O)O [Compound H-158]
++ | O=C(O)[C@@H](Cc1ccc2ccccc2c1)NC(=O)N(c1ccccc1)c1ccccc1 [Compound H-161]
++ | O=C(O)[C@@H](Cc1ccc2ccccc2c1)NC(=O)N1c2ccccc2Oc2ccccc21 [Compound H-162]
++ | O=C(O)[C@@H](Cc1ccc2ccccc2c1)NC(=O)n1c2ccccc2c2ccccc21 [Compound H-163]
+ | O=C(O)[C@@H](Cc1ccc2ccccc2c1)NC(=O)N1c2ccccc2C=Cc2ccccc21 [Compound H-164]
+++ | O=C(O)[C@@H](Cc1ccc2ccccc2c1)NC(=O)N1c2ccccc2CCc2ccccc21 [Compound H-178]
+++ | O=C(Nc1ccccc1Oc1ccccc1)N[C@H](Cc1ccc2ccccc2c1)C(=O)O [Compound H-334]
++ | O=C(Nc1ccc(C(=O)c2ccccc2)cc1)N[C@H](Cc1ccc2ccccc2c1)C(=O)O [Compound H-341]
+ | O=C(Cn1c2ccccc2c2ccccc21)N[C@H](Cc1ccc2ccccc2c1)C(=O)O [Compound H-536]

Same assay, conditions: cell-based assay, 293T cells, compound at 100 μM

Pin1 inhibition activity (in words) | SMILES
no Pin1 inhibition activity | O=C(N[C@H](Cc1ccc2ccccc2c1)C(=O)OCc1ccccc1)C1c2ccccc2-c2ccccc21 [Compound H-105]

— patent publication US11071738B2, “Therapeutic agent for fatty liver diseases and therapeutic agent for adiposity” (Hiroshima University, priority 2017, dated 2021)
